Measurements from US20070105810A1, “THERAPEUTICS” (priority 2003, published 2007).
Where “and” joins values, the source holds several entries; their conditions need not be identical. Equal values may be shown once. Entries after “also recorded” stand apart in the source; their conditions may differ.

What was measured:
[1] = tested on: T cell receptor/CD3 complex mediated Ca2+ signalling; test: Ca2+ signalling evoked by crosslinking of CD3 in rat encephalitogenic (MBP-specific) T cells; assay type: cell-based; conditions: for TCR/CD3-induced Ca2+ signalling: T-lymphocytes, summary statement
Source text: Assuming that the NAADP/Ca^2+ signalling system plays an important role in T cell receptor/CD3 mediated activation, one would expect an inhibitory effect of BZ 52 on stimulation of rat encephalitogenic CD4-positive T cells via CD3 crosslinking. Thus, Fura2-loaded rat encephalitogenic CD4-positive T cells (resting) were stimulated by anti-CD3 followed by crosslinking of the primary antibody (FIG. 11, black line). A rapid high increase of [Ca^2+]i followed by a briefly elevated sustained phase was observed.
Fura2-loaded rat T cells were analyzed for [Ca^2+]i by fluorimetry. First arrow indicates addition of anti-CD3 mAb, second arrow indicates addition of a crosslinking secondary antibody. In case of BZ 52 cells were preincubated with BZ 52 (500 μM) for 60 min at RT.
Resting rat T cells were loaded with fura2/AM and suspension measurements were carried out as described in [4]. Arrows indicate time point of addition of antibody or Ca^2+ solution. A, Addition of anti-CD3-mAb (1st arrow) and a crosslinking, secondary antibody (2nd arrow). B, Bar chart summarizing data from A (transient Ca^2+ peak and Ca^2+ plateau; mean±s.e.m, n=8-9). C, Under Ca^2+ free conditions the anti-CD3-mAb (1st arrow) and secondary crosslinking antiserum (2nd arrow) were added; then [Ca^2+] was increased to 1 mM (3rd arrow). D, Bar chart summarizing data from C (transient Ca^2+ release peak, Ca^2+ influx peak, Ca^2+ influx plateau and the difference between Ca^2+ influx peak and plateau (=Overshoot); mean±s.e.m, n=6-7). The negative controls are without stimulation by anti-CD3-mAb.
[Ca^2+]i was measured by using the fluorescent indicator Fura2/AM. In brief, 10^7 cells were loaded with Fura2/AM, and fluorescence was determined in batches of 1.5×10^6 cells with an Hitachi F-2000 fluorimeter at excitation and emission wavelengths of 340 and 380 nm (exc.) and 505 nm (em.), respectively. Measurements were carried out at 20° C. At the end of each single measurement maximal and minimal ratios were determined by addition of Triton X-100 and EGTA/Tris.

[2] = tested on: transfer experimental autoimmune encephalomyelitis (EAE) in Lewis rats; test: Transfer experimental autoimmune encephalomyelitis (EAE); assay type: in vivo, Lewis rat
Source text: Transfer of MBP-specific CD4-positive T cells was used at day 0 to induce experimental autoimmune encephalomyelitis (EAE) in Lewis rats. Animals injected with PBS (vehicle) or nicotinic acid (control compound with structural similarities to BZ52) developed severe paralysis of tail and rear legs due to the inflammation. Clinical symptoms started day 3.5 and reached their maxima day 4 to 6 (or 6.5). Between day 3.5 and day 6, no difference between PBS and nicotinic acid was observed, whereas a beneficial effect of BZ52 was visible (FIG. 14).
Animals (6 per group, body weight approx. 150 g) were injected i.p. twice per day with either PBS (vehicle control), nicotinic acid (50 μmol/100 g body weight), or BZ 52 (50 μmol/100 g body weight). Clinical scores indicate the degree of paralysis of tail and legs. Data are presented as mean±SD from one representative experiment (n=6).
Animals (6 per group, body weight approx. 150 g) were injected i.p. twice per day with either PBS (vehicle control), nicotinic acid (50 μmol/100 g body weight), or BZ 52 (50 μmol/100 g body weight). […] Data are presented as mean±SD from one representative experiment (n=6).
5×10^6 activated MBP specific-GFP Tcells were transferred i.v. into recipient Lewis rats. Clinical EAE was graded in five scores: 0.5, loss of tail tonus; 1, tail paralysis; 2, gait disturbance; 3, hind limb paralysis; 4, tetraparesis; 5, death.
Animals' weight was measured twice a day.
In order to analyze the effect of BZ194 on encephalitogenic T cells during the effector phase of EAE we used retrovirally transduced MBP-specific T cells expressing the marker gene green fluorescent protein (TMBP-GFP cells).
Animals were treated for 5 d intraperitoneally with 500 μmol BZ194 or vehicle (DMSO).

[3] = tested on: cytokine production (IL-2, IFNγ, TNFα, IL-2 receptor mRNA); test: Quantitative PCR of cytokine mRNA in spinal cord and spleen of EAE animals; assay type: in vivo, rat; conditions: spinal cord tissue 4 days after T cell transfer; BZ194 5 d, 500 μmol; relative to β actin and CD3
Description: Quantitative PCR of spinal cords and spleens 4 days after T cell transfer of animals treated with vehicle (DMSO) of BZ 194 (5 d, 500 μmol). IFNg A,B and IL-2 C,D mRNAs were measured in relation to housekeeping gene β actin A,C or T cell marker CD3 B,D.
mRNA was extracted using standard protocols (Sigma-Aldrich) and reversed to cDNA (Invitrogen). Taqman analysis was performed as reported (Flügel et al. 2001, Immunity) using ABI Prim 7700 Sequence Detector “Taqman” (PE Applied Biosystems). The expression of a housekeeping gene (b-actin) was set into relation to the specific mRNA. Data were obtained by independent duplicate measurements.

[4] = tested on: encephalitogenic (MBP-specific GFP) T cells and inflammatory cells in CNS and spleen; test: Cytofluorometric cell counts in organs of EAE animals; assay type: in vivo, rat
Description: Animals (6 per group, body weight approx. 150 g) were injected i.p. twice per day with either PBS (vehicle control), nicotinic acid (50 μmol/100 g body weight), or BZ 52 (50 μmol/100 g body weight). […] Data are corrected for organ mass and presented as mean±SD from one representative experiment.
Cytofluorometric cell counts of MBP-specific GFP T cells in spleen A and CNS B of BZ194 (500 μmol) and DMSO-treated animals at d 3 after T cell transfer.
Cytofluorometric counts of T cells (CD4/8, abTCR), monocytes/macrophages (CD11b), dendritic cells (CD11c), B cells (OX33/CD45RA) and LFA-1+ (CD11a) and MHC class II+ (OX-6) cells in EAE lesions 4 days after T cell transfer after BZ194 (5 d, 500 μmol, blue bars) or vehicle (DMSO, magenta bars).
Single cell suspensions from organs were prepared as described previously (Flügel et al. 2001, Immunity). TGFP cells were sorted immediately after cell preparation in PBS containing 2% glucose at 4° C. using FACS Vantage (Becton Dickinson) or MoFlo sorter (Cytomation Bioinstruments, Freiburg, Germany). Cytofluorometric analysis was performed with FACS-Calibur operated by Cell Quest software (Becton Dickinson). The following monoclonal antibodies were used for surface membrane analysis: W3/25 (anti-CD4), OX33 (CD45RA, B cells, both from Serotec, Düsseldorf, Germany), R73 (abTCR), OX-6 (rat MHC class II), OX-40 antigen (CD134), OX-39 (CD25, IL-2Ra chain), CD8a, CD8b, CD11a (LFA-1a), CD11b (integrin aM chain), CD11b/c (OX42), CD11c (integrin aX chain) (all Becton Dickinson, Heidelberg, Germany). Allophycocyanin-labeled anti-mouse antibody (Invitrogen, Karlsruhe, Germany) was used as secondary antibody.

[5] = 500 μmol BZ194 i.p. for 5 d, mean±SD, Experiments I-III

| Compound | TCR/CD3 complex mediated Ca2+ signalling ([1]; MBP-specific rat T cell suspensions, standard and Ca2+-free/Ca2+-reintroduction protocol) | TCR/CD3-induced Ca2+ signalling [1] | sustained Ca2+ signalling ([1]; both protocols, MBP-specific rat T cells) | Max. body weight loss (%) [2, 5] | Max. clinical score [2, 5] | clinical EAE (clinical score) ([2]; intraperitoneal BZ194, EAE by i.v. transfer of 5×10^6 TMBP-GFP cells) | cytokine (mRNA) production ex vivo [3] | recruitment of T cells, B cells, macrophages and dendritic cells into the CNS ([4]; 4 days after T cell transfer, BZ194 5 d, 500 μmol) | infiltration of MBP-specific T cells into the CNS ([4]; spinal cord, three days after T cell transfer, BZ194 500 μmol) | distribution of TMBP-GFP cells in spleen ([4]; three days after T cell transfer, BZ194 500 μmol) | Ca2+ signalling upon CD3-crosslinking ([1]; preincubation 60 min with 500 μM BZ52) | decrease in body weight ([2]; 50 μmol/100 g body weight i.p. twice per day) | clinical symptoms (clinical score) vs PBS ([2]; 50 μmol/100 g body weight i.p. twice per day, day 3.5 to day 6) | number of encephalitogenic T cells ([4]; day 4 post transfer, 50 μmol/100 g i.p. twice per day) | decrease of number of CNS-infiltrating encephalitogenic T cells ([4]; day 4 post transfer, 50 μmol/100 g i.p. twice per day, one animal per group) |
| --- | --- | --- | --- | --- | --- | --- | --- | --- | --- | --- | --- | --- | --- | --- | --- |
| CCCCCCCCNC(=O)C[n+]1cccc(C(=O)O)c1.[Br-] [BZ194, 3-Carboxy-1-Octylcarbamoylmethyl-Pyridinium] | partially blocked | efficiently inhibited | almost completely abolished | 8 ± 1.6% and 10 ± 4.4% and 9 ± 4.3% | 1.6 ± 0.5 and 1.4 ± 0.8 | suppressed; also recorded: significantly ameliorated | suppressed; also recorded: significant reduction | clearly diminished | reduced; also recorded: seemed to interfere | accumulated in the spleen |  |  |  |  |  |
| CCCCN(CCCC)C(=O)C[n+]1cccc(C(=O)O)c1 [BZ52, 3-Carboxy-1-dibutylcarbamoylmethyl-pyridinium] |  | efficiently inhibited |  |  |  |  |  |  |  |  | significantly inhibited | less pronounced decrease | a less rapid increase of symptoms, a decreased maximum score and a more rapid decline of clinical symptoms | reduced significantly | about 50% |
